Here are results for one compound from patent US6297245A, “Cisplatin and folic acid administered to treat breast cancer” (Unitech Pharmaceuticals, priority 1999, dated 2001).

Common to all, as to format: cell-based
Assay [1] deals with human breast cancer cells (MCF-7). Kind of assay: Growth inhibition of human breast cancer cells (MCF-7). An excerpt:
The results shown the extent of inhibition of cell growth compared to controls expressed in percent inhibition.

Assay [2] relates to normal human mammary cells (NHMC). Kind of assay: Growth inhibition of normal human mammary cells (NHMC) grown in RPMI-10. The settings on record: for Percent Growth Inhibition in NHMC Cells Grown in RPMI-10: RPMI-1640 with 10% fetal calf serum. An excerpt:
(§1) The results shown the extent of inhibition of cell growth compared to controls expressed in percent inhibition. The results are shown as follows:
RPMI-10 refers to standard RPMI-1640 medium with 10% fetal calf serum added.

The test system is the same in assay [3]. The assay can be described thus: Growth inhibition of normal human mammary cells (NHMC) grown at low calcium concentration (40 μM). The settings on record: calcium 40 μM. The protocol:
as §1
Table 3 Percent Growth Inhibition in NHMC Cells Grown at Low Calcium Concentration (40 μM).

Turning to `N.N.[Cl][Pt][Cl]` [cisplatin, cis-diamminedichloroplatinum], the “Percent Growth Inhibition in MCF-7 Cells” value in assay [1] (5 μL) is recorded as 25%; in assay [1] (10 μL), 49%; in assay [1] (25 μL), 92%. Moreover, in assay [1] (in words), the “inhibitions on MCF-7, comparison of cisplatin and #801C” value was “essentially the same”. Further, the “Percent Growth Inhibition in NHMC Cells Grown in RPMI-10” value was 88% in assay [2] (1/100), 46% in assay [2] (1/200) and 0% in assay [2] (1/400). The “inhibitions on NHMC, comparison of cisplatin and #801C” value in assay [2] (in words, RPMI-10) is “not significantly different”. The “Percent Growth Inhibition in NHMC Cells Grown at Low Calcium Concentration (40 μM)” value is on record as 32% in assay [3] (1/100), 31% in assay [3] (1/200) and 27% in assay [3] (1/400).
